Read-outs that look alike come from different tables or passages of the source.
Conditions: mouse, in vivo
Method: Solid phase extraction (SPE) and HPLC analysis of plasma were performed as previously described with minor modifications, [23]. SPE was performed using Sep-Pak C18 columns (Waters, Mississauga, ON). The column was activated using methanol, followed by water. 100 µL of plasma was then loaded on to the activated column. This was followed by successive washing steps with water and hexane. The analyte was eluted from the column using methanol and then dried under a stream of N2. The sample was reconstituted in DMSO:Methanol 1∶1 v/v prior to HPLC analysis. […] The radioactivity in each eluate was determined by liquid scintillation counting. […] The methanol eluates were used for HPLC analysis.
Separation was performed using a Waters C18 reversed-phase HPLC column (XTerra RP-C18, 5 µm, 4.6×250 mm I.D.) Analytes were eluted using an isocratic-gradient of 20 mM ammonium sulphate buffer (solvent A) and methanol (solvent B). The mobile phase consisted of solvent A/solvent B; 60/40% for 0–5 min, followed by a linear gradient of 60/40% to 25/75% for 5–45 and 25/75% for 45–50 min at a flow rate of 1.0 mL/min and UV detection at 280 nm. The HPLC eluate from the UV detector was collected every minute for over 50 min in eppendorf tubes and radioactivity in each sample was determined.

Row | % of total radioactivity in plasma (2 h) [%] | % of total radioactivity in plasma (6 h) [%] | % of total radioactivity in plasma (48 h) [%] | Compound
1 | 2.2±1.23 | 3.2±0.2 | 3.2±0.45 | C[C@]12CC[C@@H]3c4ccc(O)cc4CC[C@H]3[C@@H]1CC[C@@H]2O [Estradiol, estradiol]
2 | 1.02±0.24 | 1.7±0.8 | – | C[C@]12CC[C@@H]3c4ccc(O)cc4CC[C@H]3[C@@H]1CCC2=O [Estrone, estrone]

— publication PMC3661587, “Estrone-3-Sulphate, a Potential Novel Ligand for Targeting Breast Cancers” (PLoS ONE, 2013)
